Read-outs that look alike come from different tables or passages of the source.
Tests used:
[1] = system: Diabrotica balteata; experiment: Transovarial effects on Diabrotica balteata adults fed on sprayed bean plants (% egg mortality); assay type: in vivo; conditions: for mortality at 10 ppm / mortality at 25 ppm / mortality at 50 ppm: Diabrotica balteata; for Transovarial effects on treated adults of Diabrotica balteata: at the used dose rates
Method: The following IGRs in Table 1 were tested for their transovarial effects on Diabrotica balteata by observing percentage egg mortality.
Bean plants (Phaseolus vulgaris, var. Amata) were treated in an automatic spray chamber (ARO-1) with around 500 l/ha. After drying of the spray deposits, plants were placed in gauze cages and infested with newly hatched (0-24 h old) Diabrotica balteata adults. After seven days, treated plants were removed and replaced by non-treated plants. From day seven to day 38 eggs were collected in three-day intervals, counted and checked on number of hatched larvae (% egg mortality). Percentage egg mortality was calculated as the number of unhatched eggs per total number of eggs laid.

[2] = system: Spodoptera frugiperda; experiment: Foliar spray application on cotton, larval mortality of Spodoptera frugiperda; assay type: in vivo; conditions: 4 DAT (days after treatment)
Source text: For example on both Spodoptera frugiperda and Plutella xylostella similar activities were obtained for the same rates: […]

[3] = egg laying period 1, read-out: % egg mortality: on egg laying period 1
[4] = egg laying period 2, read-out: % egg mortality: on egg laying period 2
[5] = egg laying period 3, read-out: % egg mortality: on egg laying period 3
[6] = egg laying period 4, read-out: % egg mortality: on egg laying period 4
[7] = egg laying period 5, read-out: % egg mortality: on egg laying period 5
[8] = egg laying period 6, read-out: % egg mortality: on egg laying period 6
[9] = egg laying period 7, read-out: % egg mortality: on egg laying period 7
[10] = egg laying period 8, read-out: % egg mortality: on egg laying period 8

SMILES | mortality at 10 ppm [1, 3] | mortality at 10 ppm [1, 4] | mortality at 10 ppm [1, 5] | mortality at 10 ppm [1, 6] | mortality at 10 ppm [1, 7] | mortality at 10 ppm [1, 8] | mortality at 25 ppm [1, 3] | mortality at 25 ppm [1, 4] | mortality at 25 ppm [1, 5] | mortality at 25 ppm [1, 6] | mortality at 25 ppm [1, 8] | mortality at 50 ppm [1, 4] | mortality at 50 ppm [1, 5] | mortality at 50 ppm [1, 6] | mortality at 50 ppm [1, 7] | mortality at 50 ppm [1, 8] | Spray interval ([1]; Rate 25 g AI/ha) | Transovarial effects on treated adults of Diabrotica balteata [1] | mortality at 50 ppm [1, 9] | Spray interval ([1]; Rate 12.5 g AI/ha) | also measured
O=C(NC(=O)c1c(F)cccc1F)Nc1cc(Cl)c(F)c(Cl)c1F [Nomolt, Teflubenzuron] | 40% | 15% | 7% | 11% | 8% | 14% | 76% | 48% | 34% | 11% | 13% | 67% | 14% | 11% | 13% | 10% | 3 days | Transovarial effects can be observed | – | – | Spray interval (days) ([1]; Rate 5 g AI/ha): Insufficient; Spray interval (days) ([1]; Rate 12.5 g AI/ha): Insufficient
O=C(NC(=O)c1c(F)cccc1F)Nc1cc(Cl)c(OC(F)(F)C(F)C(F)(F)F)cc1Cl (stereo not shown) [Match, Lufenuron] | 100% | 100% | 73% | 17% | 8% | 9% | 100% | 100% | 85% | 15% | 8% | 100% | 96% | 50% | 40% | 9% | 7 days | Transovarial effects can be observed | 8% | 7 days | LC50 [2]: LC50 = 1 ppm; total number of sterilised (unhatched) eggs, considered over the whole test period ([1]; 5 g AI ha^-1): ~20%; total number of sterilised (unhatched) eggs, considered over the whole test period ([1]; 12.5 g AI ha^-1): ≈ 25%; total number of sterilised (unhatched) eggs, considered over the whole test period ([1]; 25 g AI ha^-1): ≈ 25%; mortality at 10 ppm [1, 9]: 12%; mortality at 10 ppm [1, 10]: 8%; mortality at 25 ppm [1, 9]: 9%; mortality at 50 ppm [1, 10]: 8%; Spray interval ([1]; Rate 5 g AI/ha): 5 days
O=C(NC(=O)c1c(F)cccc1F)Nc1cc(Cl)c(OC(F)(F)C(F)F)c(Cl)c1 [Consult, Hexaflumuron] | 75% | 36% | 7% | 8% | 9% | 10% | 97% | 93% | 15% | 11% | 11% | 92% | 15% | 22% | 48% | 15% | 5 days | Transovarial effects can be observed | – | 5 days | Spray interval (days) ([1]; Rate 5 g AI/ha): Insufficient
O=C(NC(=O)c1c(F)cccc1F)Nc1ccc(Cl)cc1 [Dimilin, Diflubenzuron] | 0% | 11% | 6% | 10% | 9% | 12% | 0% | 7% | 5% | 5% | 10% | 16% | 3% | 5% | 7% | 7% | – | transovarially inactive | 8% | – | –
CCc1ccc(C(=O)NN(C(=O)c2cc(C)cc(C)c2)C(C)(C)C)cc1 [Mimic, Tebufenozide] | 7% | 9% | 8% | 11% | – | – | 9% | 13% | 9% | 10% | – | 10% | 10% | 13% | – | – | – | transovarially inactive | – | – | –
COc1cccc(C(=O)NN(C(=O)c2cc(C)cc(C)c2)C(C)(C)C)c1C [Intrepid, Methoxyfenozide] | 7% | 8% | 9% | 7% | – | – | 13% | 13% | 7% | 11% | – | 14% | 10% | 9% | – | – | – | transovarially inactive | – | – | –
O=C(NC(=O)c1c(F)cccc1F)Nc1ccc(Oc2ccc(C(F)(F)F)cc2Cl)cc1F [Cascade, Flufenoxuron] | 69% | 22% | 91% | 10% | 9% | 8% | 100% | 100% | 98% | 64% | 14% | 100% | 100% | 64% | 13% | 6% | 7 days | Transovarial effects can be observed | 11% | 7 days | mortality at 10 ppm [1, 9]: 8%; mortality at 10 ppm [1, 10]: 8%; mortality at 25 ppm [1, 9]: 9%; mortality at 50 ppm [1, 10]: 9%; Spray interval ([1]; Rate 5 g AI/ha): 7 days
